# Experimental data reported in patent publication US20030130200A1, “Small peptides and methods for treatment of asthma and inflammation” (Hisatek, LLC, priority 1997, published 2003).
# Entries after “also recorded” stand apart in the source; their conditions may differ. Where no end group is shown, it is not given here. The star is where a group is joined. For = O=C*
# System: OVA-induced asthmatic mice
# Experiment: OVA-induced bronchial asthma mouse model, Standard/Resolution protocols, drug before each i.n. challenge
# Format: in vivo, mouse (female BALB/c)
# From the text: The OVA-Induced Bronchial Asthma Mouse Model for Inhibition of Mast Cell Degranulation
# Reagents: Crystalline OVA was obtained from Pierce Chem. Co. (Rockford, Ill.) aluminum potassium sulfate (alum) from Sigma Chem. Co. (St. Louis, Mo.), pyrogen-free distilled water from Baxter, Healthcare Corporation (Deerfield, Ill.), 0.9% sodium chloride (normal saline) from Lymphomed (Deerfield, Ill.) and Trappsol™ HPB-L100 (aqueous hydroxypropyl beta cyclodextrin; 45 wt/vol % aqueous solution) from Cyclodextrin Technologies Development, Inc. (Gainesville, Fla.). The OVA (500 μg/ml in normal saline) was mixed with equal volumes of 10% (wt/vol) alum in distilled water. The mixture (pH 6.5 using 10 N NaOH) after incubation for 60 minutes at room temperature underwent centrifugation at 750 g for 5 minutes; the pellet was resuspended to the original volume in distilled water and used within one hour.
# The selective 5-lipoxtgenase inhibitor, Zileuton (N-[1-benzo[b]thien-2-ylethyl]-N-hydroxyurea; J. Pharmacol Exp Ther. 1991; 256: 929-937), was kindly provided by Drs. Bell and George W. Carter (Abbott Laboratories, Abbott Part, Ill.). Zileuton was dissolved in Trappsol.™. Histatek, Inc. (Seattle, Wash.) provided the mast cell degranulation inhibitor, f-Met-Leu-Phe-Phe (“HK-X”).
# Female BALB/c […] (6-8 wk of age at purchase; D and K, Seattle Wash.) were housed under conventional conditions for the studies.
# Allergen Immunization/Challenge Protocols: Mice received an i.p. injection of 0.2 ml (100 μg) of OVA with alum on the different protocols of Standard (FIG. 5A) and Resolution (FIG. 5B) (J. Exp Med. 1996; 184: 1483-1494). According to the different protocols, mice were anesthetized with 0.2 ml i.p. of ketamine (0.44 mg/ml)/xylazine (6.3 mg/ml) in normal saline before receiving an intranasal (i.n.) does of 100 μg OVA in 0.05 ml normal saline and an i.n. dose of 50 μg OVA in 0.05 ml normal saline separately on different days. Two control groups were used. Accordingly, the first group received normal saline with alum i.p. and normal saline without alum i.n.; the second group received OVA with alum i.p., OVA without alum i.n., and normal saline, alone.
# The trachea and left lung (the right lung is used for bronchoalveolar lavage (“BAL”)) were obtained and fixed in 10% neutral formaldehyde solution at room temperature for 6˜15h. After being embedded in paraffin, the tissues were cut into 5-um sections and processed with the different staining or immunolabling further. Discombe's eosinophil staining was used for counting the cell numbers with the counterstain of methylene blue. The eosinophil number per unit airway area (2,200 μm^2) was determined by morphometry (J. Pathol. 1992; 166: 395-404; Am Rev Respir Dis. 1993; 147:448-456). Fibrosis was identified with the Masson's trichrome staining. Airway mucus was identified by the following staining method: methylene blue, hematoxylin and eosin, mucicarmine, alcian blue, and alcian blue/periodic acid-Schiff (PAS) reaction (Troyer, H., “Carbohydrates” in Principles and Techniques of Histochemistry, Little, Brown and Company, Boston, Mass., 1980: 89-121; Sheehan, D. C., et al., “Carbohydrates” in Theory and Practice of Histotechnology, Battle Press, Columbus, Ohio, 1980: 159-179). Mucin was stained with mucicarmine solution; metanil yellow counterstain was employed.
# Acidic mucin and sulfated mucosubstances were stained with alcian blue, pH 2.5; nuclear fast red counterstain was used. Neutral and acidic mucosubstances were identified by alcian blue. pH 2.5, and PAS reaction. The degree of mucus plugging of the airways (0.5-0.8 mm in diameter) was also assessed by morphometry. The percent occlusion of airway diameter by mucus was classified on a semiquantitative scale from 0 to 4+ as described in Figure Legends. The histologic and morphometric analyses were performed by individuals blinded to the protocol design. […]
substance,measurement,setting,value
f-Met-Leu-Phe-Phe (For-MLFF) [Example 9],Reduction of airway eosinophils over time course,"1-, 2- and 3-month groups, versus OVA","reduced eosinophils comparably at one month, but much more beneficially at two and three months"
same,% of plug of airway,28 days,19%
same,Mucus plug score in airways,"28 days, semiquantitative scale 0 to 4+",1.4
same,"Mucus accumulation / mucus release in the airway (histology, morphometry)","HK-X given before i.n. OVA, FIG. 6, listed as HK-X",inhibits mucus accumulation; also recorded: markedly reduced
same,Infiltration of the interstitial tissue by eosinophils (histology),"compared to OVA-challenge alone, FIG. 6C",also reduced
same,Formation of mucus plugs / mucus production in small airways,"doses of 5 μg/kg and 10 μg/kg, FIG. 7",Both doses significantly reduce the mucus production in small airways
